Laboratory results reported in patent US9259401B2 (priority 2011, dated 2016).
Where two headings read alike, the source gives them in different places.

Experiment: Comparative bioavailability study, curcumin in plasma by HPLC
Type: in vivo, human
Settings: for AUC(0-inf) / AUC(0-t) / Cmax / Tmax / concentration at 0 hr / concentration at 1 hr / concentration at 2 hr / concentration at 4 hr: human, plasma, po, 1 gm
Procedure: The bioavailability study was conducted at Amala Cancer Institute, Thrissur, Kerala on a request from the applicant. Twelve healthy subjects were recruited for the purpose of the study. […] The study design chosen was a balanced, open label, two-treatment, two-period, single dose, bioavailability study.
12 Subject were recruited for the study and were asked to avoid consumption of food containing rich turmeric powder or extract for 24 hours preceding each period. […] The following supplements were used for the purpose of the study:
Each of the supplements were administered with 240 ml water in each period.
The study design is open label, two-treatment, two-period, single dose, bioavailability study. […] Subjects were asked to avoid consumption of food containing rich turmeric powder or extract for 24 hours preceding each period. […] There was a washout period of at least 2 weeks between the doses.
Blood was drawn from each subject just prior to dosing and at 1, 2, 4, 6, 8, and 24 hours post-dose. The total blood loss for each subject was approximately 70 ml and there were totally 14 blood samples of 5 ml each time point throughout the study.
The primary efficacy variables were measured in this study were Cmax, AUCO-t and AUCO-∞ and the secondary efficacy variable were as follows Tmax, T½ and Kel. The statistical evaluation was done by Winnonlin Software 5.0.1 version. […] Tmax and T½ were also be recorded and compared for the two products.
Preparation of Sample (Spiked with Standard Solution E): The frozen plasma samples were allowed to attain the room temperature. 1000 μl of the plasma sample was pipetted out and spiked with 100 μl of spiking standard solution E. This solution was vortex for 1 minute and 3.0 ml ethyl acetate (HPLC Grade) was added to the above solutions. The solution was vortex again for 1 minute with the aid of cyclomixer and allowed to settle down at room temperature.
1.5 ml of the upper ethyl acetate layer was pipetted out and evaporated to dryness using vacuum. The dried sample was dissolved in 600 μl of methanol (HPLC Grade) using vortex mixer. This solution was filtered by 0.2 micron membrane filter paper. 100 μl of these filtered solution was injected in HPLC (Waters Alliance System with 2996 PDA detector in isocratic mode). The column used was LiChrospher 100 RP-18 (250×4.6 mm 5 μM particle size) with methanol as the mobile phase and the detection wavelength was 420 nm. To identify and quantized curcuminoids in plasma the chromatographic peaks were compared with standard solution.

[1] = 1 gm curcuminoids oral, read-out: Geometric Mean plasma concentration
[2] = 1 gm curcuminoids oral, read-out: Max plasma concentration
[3] = 1 gm curcuminoids oral, read-out: Mean plasma concentration
[4] = 1 gm curcuminoids oral, read-out: Median plasma concentration
[5] = 1 gm curcuminoids oral, read-out: Min plasma concentration

## COc1cc(C=CC(=O)CC(=O)C=Cc2ccc(O)c(OC)c2)ccc1O [Curcumin, 1,7-bis(4-hydroxy-3-methoxyphenyl)-1,6-heptadien-3,5-dione]
1 gm curcuminoids oral
  AUCINF, Max: 87.74 ng·h/mL
  AUCINF, Min: 76.09 ng·h/mL
  AUCT, Max: 198.27 ng·h/mL
  AUCT, Min: 31.24 ng·h/mL
  Cmax, Max: 36.11 ng/mL
  Cmax, Min: 2.48 ng/mL
  Thalf, Geometric Mean: 7.066 h
  Thalf, Max: 11.39 h
  Thalf, Mean: 7.516 h
  Thalf, Median: 5.95 h
  Thalf, Min: 5.21 h
  Tmax, Max: 24.00 h
  Tmax, Min: 1.00 h
1 gm curcuminoids oral, listed as Curcumin Extract Powder (min 95% Curcuminoids)
  AUCINF, Mean (mean AUC): 80.433 ng·h/mL
1 gm curcuminoids oral, read-out: AUCINF, Geometric Mean
  AUC(0-inf): 80.3 ng·h/mL
1 gm curcuminoids oral, read-out: AUCINF, Mean (mean AUC)
  AUC(0-inf): 80.4 ng·h/mL
1 gm curcuminoids oral, read-out: AUCINF, Median
  AUC(0-inf): 77.5 ng·h/mL
1 gm curcuminoids oral, read-out: AUCT, Geometric Mean
  AUC(0-t): 81 ng·h/mL
1 gm curcuminoids oral, read-out: AUCT, Mean
  AUC(0-t): 98.8 ng·h/mL
1 gm curcuminoids oral, read-out: AUCT, Median
  AUC(0-t): 77.8 ng·h/mL
1 gm curcuminoids oral, read-out: Cmax, Geometric Mean
  Cmax: 10.5 ng/mL
1 gm curcuminoids oral, read-out: Cmax, Mean
  Cmax: 13.3 ng/mL
1 gm curcuminoids oral, read-out: Cmax, Median
  Cmax: 10.3 ng/mL
1 gm curcuminoids oral, read-out: Tmax, Geometric Mean
  Tmax: 4.06 h
1 gm curcuminoids oral, read-out: Tmax, Mean
  Tmax: 8.25 h
1 gm curcuminoids oral, read-out: Tmax, Median
  Tmax: 3 h
Individual subjects, 1 gm curcuminoids oral, read-out: AUCINF
  AUC(0-inf): 76.1 ng·h/mL
Time 0 hr (prior to dosing), 1 gm curcuminoids oral, read-out: Mean plasma concentration
  concentration at 0 hr: 0 ng/mL
Time 0.00 hr (prior to dosing), individual subjects, single oral dose equivalent to 1 gm curcuminoids, read-out: Individual plasma concentration
  concentration at 0 hr: 0 ng/mL
Time 0 hr, 1 gm curcuminoids oral, read-out: Geometric Mean plasma concentration
  concentration at 0 hr: 0 ng/mL
Time 0 hr, 1 gm curcuminoids oral, read-out: Max plasma concentration
  concentration at 0 hr: 0 ng/mL
Time 0 hr, 1 gm curcuminoids oral, read-out: Median plasma concentration
  concentration at 0 hr: 0 ng/mL
Time 0 hr, 1 gm curcuminoids oral, read-out: Min plasma concentration
  concentration at 0 hr: 0 ng/mL
[1]
  concentration at 1 hr: 1.58 ng/mL
  concentration at 2 hr: 13.5 ng/mL
  concentration at 4 hr: 4.89 ng/mL
[2]
  concentration at 1 hr: 20.6 ng/mL
  concentration at 2 hr: 19.8 ng/mL
  concentration at 4 hr: 15.6 ng/mL
[3]
  concentration at 1 hr: 5.46 ng/mL
  concentration at 2 hr: 14.4 ng/mL
[4]
  concentration at 1 hr: 1.66 ng/mL
  concentration at 2 hr: 14.9 ng/mL
[5]
  concentration at 1 hr: 0.05 ng/mL
  concentration at 2 hr: 8.39 ng/mL
